Assay results taken from ChEMBL document CHEMBL3804787, “Electrophilic Oxidation and [1,2]-Rearrangement of the Biindole Core of Birinapant” (ACS Med Chem Lett, 2016).

How the values were obtained:
[1] = Drug level using Birinapant assessed as compound formation by HPLC analysis; format: physicochemical
[2] = Drug degradation of the compound at 40 degC/75% RH measured after 1 year by HPLC analysis; format: physicochemical; conditions: read-out: Drug degradation

SMILES	Drug metabolism [1]	degraded at 8766 h [2]
CC[C@H](NC(=O)[C@H](C)NC)C(=O)N1C[C@@H](O)C[C@H]1Cc1c([C@@]2(C[C@@H]3C[C@H](O)CN3C(=O)[C@H](CC)NC(=O)[C@H](C)NC)Nc3cc(F)ccc3C2=O)[nH]c2cc(F)ccc12	metabolite_detected	
CC[C@H](NC(=O)[C@H](C)NC)C(=O)N1C[C@@H](O)C[C@H]1Cc1c([C@]2(C[C@@H]3C[C@H](O)CN3C(=O)[C@H](CC)NC(=O)[C@H](C)NC)Nc3cc(F)ccc3C2=O)[nH]c2cc(F)ccc12	metabolite_detected	
CC[C@H](NC(=O)[C@H](C)NC)C(=O)N1C[C@@H](O)C[C@H]1C[C@@]1(O)C(c2[nH]c3cc(F)ccc3c2C[C@H]2C[C@@H](O)CN2C(=O)[C@@H](CC)NC(=O)[C@@H](C)NC)=Nc2cc(F)ccc21	metabolite_detected	
CC[C@H](NC(=O)[C@H](C)NC)C(=O)N1C[C@@H](O)C[C@H]1C[C@]1(O)C(c2[nH]c3cc(F)ccc3c2C[C@H]2C[C@@H](O)CN2C(=O)[C@@H](CC)NC(=O)[C@@H](C)NC)=Nc2cc(F)ccc21	metabolite_detected	
CC[C@H](NC(=O)[C@H](C)NC)C(=O)N1C[C@@H](O)C[C@H]1Cc1c(-c2[nH]c3cc(F)ccc3c2C[C@@H]2C[C@H](O)CN2C(=O)[C@H](CC)NC(=O)[C@H](C)NC)[nH]c2cc(F)ccc12 [BIRINAPANT]		> 0.1%
